# Assay results from patent US7842470B2, “Method for pharmacoperones correction of GnRHR mutant protein misfolding” (Oregon Health & Science University, priority 2001, dated 2010).
# Residue numbers refer to the chain shown, from its start.
# Columns and labels:
# WT hGnRHR = target: T1, WT hGnRHR (Homo sapiens, UniProt P30968); test: IP production in COS-7 cells transfected with WT hGnRHR, Buserelin dose response (FIG. 13 inset); type: cell-based; conditions: COS-7 cells transfected with 100 ng of WT hGnRHR
# T1 construct: expressed in transfected cells; host or cells: COS-7
# T1 sequence (P30968 1-328): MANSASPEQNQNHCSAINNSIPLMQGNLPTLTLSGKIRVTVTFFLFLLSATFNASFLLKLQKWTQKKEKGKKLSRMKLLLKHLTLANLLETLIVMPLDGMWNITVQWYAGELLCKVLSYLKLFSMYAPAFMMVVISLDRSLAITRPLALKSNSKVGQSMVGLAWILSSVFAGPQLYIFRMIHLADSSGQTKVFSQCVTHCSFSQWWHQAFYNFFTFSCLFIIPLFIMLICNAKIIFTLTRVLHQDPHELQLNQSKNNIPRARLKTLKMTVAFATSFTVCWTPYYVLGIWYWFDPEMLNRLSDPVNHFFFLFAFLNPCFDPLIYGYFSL
# Protocol: For tranfections, 5×10^4 COS-7 cells were plated in 0.25 ml growth medium in 48 well Costar cell culture plates. Twenty-four hours after plating, the cells were washed once with 0.5 ml OPTI-MEM (Promega, Madison, Wis.) then transfected with 100 ng total cDNA (pcDNA3.1+without insert “empty vector” was included to bring the total cDNA to 100 ng/well, unless otherwise indicated) and 1 μl lipofectamine in 0.125 ml OPTI-MEM (room temperature), according to manufacture's instructions. For co-transfection, the cells were co-transfected with WT GnRHR (5 ng/well) and empty vector or mutant GnRHR (95 ng/well) or other GPCR cDNAs, as indicated, using 1 μl Lipofectamine (Promega, Madison, Wis.) in 0.125 ml Opti-MEM. Constant amounts of Opti-MEM were achieved by the addition of sterile milli-Q H2O to the cDNA mixtures. […]
# The IP production was measured 27 hours after transfection, as described in Example 1, except that following the preloading, cells were treated for 2 hours in 0.25 ml of Buserelin (100 nM), and at the end of the incubation period, the cells were frozen and thawed in the presence of 0.5 ml of 0.1 M formic acid. Data (n≧3) was analyzed with one-way ANOVA and then paired Student's t-test (SigmaStat 3.0, Jandel Scientific Software, Chicago, Ill.; P<0.05 was considered significant). […]
# mutant GnRHR = target: T2, mutant GnRHR (Homo sapiens, UniProt P30968, E90K); test: Pharmacological rescue of GnRHR mutants (Example 1), IP production and agonist binding; type: cell-based
# T2 construct: expressed in transfected cells; host or cells: COS-7
# T2 sequence (P30968 1-328 E90K): T1 sequence (P30968 1-328) with E90K
# Protocol: WT and mutant hGnRHR were separately transiently expressed in COS-7 cells using standard molecular biology methods (Leaños-Miranda et al., J. Clin. Endo. Metab., 87:4825-8, 2002). Briefly, cells were maintained in growth medium (DMEM) containing 10% fetal calf serum (FCS; Life Technologies, Grand Island, N.Y.) and 20 μg/ml gentamicin (Gemini Bioproducts, Calabasas, Calif.) in a 5% CO2 humidified atmosphere at 37° C. One hundred thousand cells/well were seeded in 24-well plates (Costar, Cambridge, Mass.). Twenty-four hours after plating, the cells were transfected with 0.05 μg DNA per well (for IP production assay) or 0.1 μg DNA per well (for saturation binding studies) using 2 μl lipofectamine in 0.25 ml OPTI-MEM containing 1% DMSO (vehicle) or 1 μg/ml of each indole, quinoline or erythromycin macrolide prepared in vehicle.
# After five hours, 0.25 ml of DMEM containing 20% FCS with or without indole, quinoline or erythromycin macrolide (as indicated) was added to each well. The cells were incubated for an additional 18 hours at 37° C., then washed and fresh growth medium with (1 μg/ml) or without the therapeutic agent was added to the cells for another 28 hours at 37° C. […]
# The quantification of IP production and saturation binding were determined as described previously (Huckle and Conn, Methods Enzymol. 141:149-55, 1987).
# To determine the saturation binding, the cells were washed twice with warm DMEM/BSA prior to incubating with the GnRH agonist [^125I]-buserelin [D-tert-butyl-Ser^6, des-Gly^10, Pro^9, ethylamide-GnRH; specific activity, 700 μCi/μg; 230,000 cpm/0.5 ml, pH 7.4; Hoeschst-Roussel Pharmaceuticals (Somerville, N.J.); also see Marian et al., Mol. Pharmacol. 19:399-405, 1981] and nonspecific binding was measured in the presence of 1 μM GnRH (NIDDK National Hormone and Peptide Program, Bethesda, Md.). […] The sample was transferred to a glass tube and counted in a gamma counter (Packard Instruments; Downers Grove, Ill.). Specific binding was calculated by subtracting non-specific binding (binding measured in the presence of 1 μM GnRH) from total binding (no GnRH). […]
Buserelin concentration giving maximal response on IP production (WT hGnRHR),Compound,restoration of function to mutant GnRHR (mutant GnRHR)
10^−7 M,"CCNC(=O)[C@@H]1CCCN1C(=O)[C@H](CCCNC(=N)N)NC(=O)[C@H](CC(C)C)NC(=O)[C@@H](COC(C)(C)C)NC(=O)[C@H](Cc1ccc(O)cc1)NC(=O)[C@H](CO)NC(=O)[C@H](Cc1c[nH]c2ccccc12)NC(=O)[C@H](Cc1cnc[nH]1)NC(=O)[C@@H]1CCC(=O)N1 [Buserelin, D-tert-butyl-Ser^6, des-Gly^10, Pro^9, ethylamide-GnRH]",–
–,"COc1cc2c(cc1OC)CN(C(=O)c1cc3c(OCC[C@@H]4CCCCN4)c(-c4cc(C)cc(C)c4)c(=O)[nH]c3cc1Cl)CC2.O=C(O)C(F)(F)F [Q08, (2S)-2-(2-{[7-chloro-6-[(6,7-dimethoxy-3,4-dihydroisoquinolin-2(1H)-yl)carbonyl]-3-(3,5-dimethylphenyl)-2-oxo-1,2-dihydroquinolin-4-yl]oxy}ethyl)piperidinium trifluoroacetate]",known not to bind to or restore function to mutant protein
–,"CC[C@H]1OC(=O)[C@H](C)[C@@H](O[C@H]2C[C@@](C)(OC)[C@@H](O)[C@H](C)O2)[C@H](C)[C@@H](O[C@@H]2O[C@H](C)C[C@H](N(C)C)[C@H]2O)[C@](C)(O)C[C@@H](C)C(=O)[C@H](C)[C@@H](O)[C@]1(C)O [A-7662.0, Erythromycin A]",known not to bind to or restore function to mutant protein
–,"Cc1cc(C)cc(-c2[nH]c3ccc(C(C)(C)C(=O)N4CCN(C)CC4)cc3c2[C@H](C)CNCCc2ccc(C(=O)O)cc2)c1.O=C(O)C(F)(F)F [IN31b, (2S)-N-[2-(4-carboxyphenyl)ethyl]-2-[5-[1,1-dimethyl-2-(4-methylpiperazin-1-yl)-2-oxoethyl]-2-(3,5-dimethylphenyl)-1H-indol-3-yl]propan-1-aminium trifluoroacetate]",known not to bind to or restore function to mutant protein
